Measurements as given in publication PMC6663621 (Cancer, 2019).
Where “and” joins values, the source holds several entries; their conditions need not be identical. Identical values can stand only once. Like-named read-outs stand apart in the source and are kept apart here.

Key:
[1] = clinical; conditions: human, plasma
[2] = plasma, Cohort 1, CC-486 dose 200 mg oral, Cycle 1 Day 1, actual values (n=2)
[3] = plasma, Cohorts 2 and 3, CC-486 dose 300 mg oral, Cycle 1 Day 1, mean ± SD

Row | Cmax ([1]; iv, 8 mg/m2) [ng/mL] | Tmax ([1]; iv, 8 mg/m2) [h] | clearance ([1]; iv, 8 mg/m2) [mL/min] | Tmax ([1]; oral) [h] | Cmax ([1]; po, 200 mg) [ng/mL] | Tmax ([1]; po, 200 mg) [h] | Cmax ([1]; po, 300 mg) [ng/mL] | Tmax ([1]; po, 300 mg) [h] | difference in dose-normalized exposure, apparent clearance, apparent volume of distribution or half-life (200 or 300 mg CC-486) | AUCINF [2] [ng·h/mL] | Cl/F [2] | V/F [2] | t1/2 [2] [h] | Cl/F [3] | V/F [3] | SMILES
1 | 455 ± 255 | 4 | 178 | – | – | – | – | – | – | – | – | – | – | – | – | C/C=C1\NC(=O)[C@H]2CSSCC/C=C/[C@H](CC(=O)N[C@H](C(C)C)C(=O)N2)OC(=O)[C@H](C(C)C)NC1=O [romidepsin]
2 | – | – | – | ~1 | 324 ± 157 | 1 | 226 ± 130 | 1.08 | no difference | 538 | 372 L/h and 373 L/h | 293 L and 319 L | 0.59 | 922 ± 892 (10) L/h | 731 ± 557 (10) L | Nc1ncn([C@@H]2O[C@H](CO)[C@@H](O)[C@H]2O)c(=O)n1 [5-azacitidine]
